Reference: patent US8192962B2, “Processes for detecting toxic substances” (Daikin Industries, Ltd., priority 2001, dated 2012)

Tested on: Genes belonging to other category
Assay: DNA chip mRNA expression in yeast, genes belonging to other category (Table 9)
Type: cell-based, Saccharomyces cerevisiae S288C
How it was run: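 Chemical exposure: 2 h, log-phase S. cerevisiae S288C, YPD, 25° C., dose set to inhibit growth without death. Profiling: mRNA labeled by reverse transcription with Cy3- or Cy5-dUTP, hybridized to whole-genome array. Output: fluorescence ratio against untreated culture.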

## Na2As [(1)]
Yeast gene YAR010C
  The level of expressed mRNA in the presence of chemical substance/The level of expressed mRNA in the absence of chemical substance: 0.8
Yeast gene YBL005W-A
  The level of expressed mRNA in the presence of chemical substance/The level of expressed mRNA in the absence of chemical substance: 1.0
Yeast gene YBL041W
  The level of expressed mRNA in the presence of chemical substance/The level of expressed mRNA in the absence of chemical substance: 1.2
Yeast gene YBL043W
  The level of expressed mRNA in the presence of chemical substance/The level of expressed mRNA in the absence of chemical substance: 1.2
Yeast gene YBL078C
  The level of expressed mRNA in the presence of chemical substance/The level of expressed mRNA in the absence of chemical substance: 2.3
Yeast gene YBR214W
  The level of expressed mRNA in the presence of chemical substance/The level of expressed mRNA in the absence of chemical substance: 0.9
Yeast gene YCL020W
  The level of expressed mRNA in the presence of chemical substance/The level of expressed mRNA in the absence of chemical substance: 1.1
Yeast gene YCL027W
  The level of expressed mRNA in the presence of chemical substance/The level of expressed mRNA in the absence of chemical substance: 0.7
Yeast gene YCR004C
  The level of expressed mRNA in the presence of chemical substance/The level of expressed mRNA in the absence of chemical substance: 1.7
Yeast gene YCR071C
  The level of expressed mRNA in the presence of chemical substance/The level of expressed mRNA in the absence of chemical substance: 1.1
Yeast gene YCR088W
  The level of expressed mRNA in the presence of chemical substance/The level of expressed mRNA in the absence of chemical substance: 0.9
Yeast gene YDL008W
  The level of expressed mRNA in the presence of chemical substance/The level of expressed mRNA in the absence of chemical substance: 1.1
Yeast gene YDL238C
  The level of expressed mRNA in the presence of chemical substance/The level of expressed mRNA in the absence of chemical substance: 0.7
Yeast gene YDR055W
  The level of expressed mRNA in the presence of chemical substance/The level of expressed mRNA in the absence of chemical substance: 1.7
Yeast gene YDR084C
  The level of expressed mRNA in the presence of chemical substance/The level of expressed mRNA in the absence of chemical substance: 0.9
Yeast gene YDR085C
  The level of expressed mRNA in the presence of chemical substance/The level of expressed mRNA in the absence of chemical substance: 1.9
Yeast gene YDR104C
  The level of expressed mRNA in the presence of chemical substance/The level of expressed mRNA in the absence of chemical substance: 0.8
Yeast gene YDR115W
  The level of expressed mRNA in the presence of chemical substance/The level of expressed mRNA in the absence of chemical substance: 1.3
Yeast gene YDR259C
  The level of expressed mRNA in the presence of chemical substance/The level of expressed mRNA in the absence of chemical substance: 1.4
Yeast gene YDR315C
  The level of expressed mRNA in the presence of chemical substance/The level of expressed mRNA in the absence of chemical substance: 1.0
Yeast gene YDR358W
  The level of expressed mRNA in the presence of chemical substance/The level of expressed mRNA in the absence of chemical substance: 0.7
Yeast gene YDR388W
  The level of expressed mRNA in the presence of chemical substance/The level of expressed mRNA in the absence of chemical substance: 0.7
Yeast gene YDR432W
  The level of expressed mRNA in the presence of chemical substance/The level of expressed mRNA in the absence of chemical substance: 0.5
Yeast gene YDR481C
  The level of expressed mRNA in the presence of chemical substance/The level of expressed mRNA in the absence of chemical substance: 0.7
Yeast gene YDR510W
  The level of expressed mRNA in the presence of chemical substance/The level of expressed mRNA in the absence of chemical substance: 1.0
Yeast gene YEL042W
  The level of expressed mRNA in the presence of chemical substance/The level of expressed mRNA in the absence of chemical substance: 0.6
Yeast gene YEL066W
  The level of expressed mRNA in the presence of chemical substance/The level of expressed mRNA in the absence of chemical substance: 2.0
Yeast gene YER039C
  The level of expressed mRNA in the presence of chemical substance/The level of expressed mRNA in the absence of chemical substance: 1.0
Yeast gene YER107C
  The level of expressed mRNA in the presence of chemical substance/The level of expressed mRNA in the absence of chemical substance: 0.9
Yeast gene YER130C
  The level of expressed mRNA in the presence of chemical substance/The level of expressed mRNA in the absence of chemical substance: 0.9
Yeast gene YFL022C
  The level of expressed mRNA in the presence of chemical substance/The level of expressed mRNA in the absence of chemical substance: 0.8
Yeast gene YFL028C
  The level of expressed mRNA in the presence of chemical substance/The level of expressed mRNA in the absence of chemical substance: 1.2
Yeast gene YFL043C
  The level of expressed mRNA in the presence of chemical substance/The level of expressed mRNA in the absence of chemical substance: 1.0
Yeast gene YGL158W
  The level of expressed mRNA in the presence of chemical substance/The level of expressed mRNA in the absence of chemical substance: 1.1
Yeast gene YGL229C
  The level of expressed mRNA in the presence of chemical substance/The level of expressed mRNA in the absence of chemical substance: 0.6
Yeast gene YGR136W
  The level of expressed mRNA in the presence of chemical substance/The level of expressed mRNA in the absence of chemical substance: 0.9
Yeast gene YGR189C
  The level of expressed mRNA in the presence of chemical substance/The level of expressed mRNA in the absence of chemical substance: 1.1
Yeast gene YGR213C
  The level of expressed mRNA in the presence of chemical substance/The level of expressed mRNA in the absence of chemical substance: 5.4
Yeast gene YGR257C
  The level of expressed mRNA in the presence of chemical substance/The level of expressed mRNA in the absence of chemical substance: 0.7
Yeast gene YHR004C
  The level of expressed mRNA in the presence of chemical substance/The level of expressed mRNA in the absence of chemical substance: 0.9
Yeast gene YHR071W
  The level of expressed mRNA in the presence of chemical substance/The level of expressed mRNA in the absence of chemical substance: 1.5
Yeast gene YHR139C
  The level of expressed mRNA in the presence of chemical substance/The level of expressed mRNA in the absence of chemical substance: 3.0
Yeast gene YHR142W
  The level of expressed mRNA in the presence of chemical substance/The level of expressed mRNA in the absence of chemical substance: 1.5
Yeast gene YIL123W
  The level of expressed mRNA in the presence of chemical substance/The level of expressed mRNA in the absence of chemical substance: 1.0
Yeast gene YIL140W
  The level of expressed mRNA in the presence of chemical substance/The level of expressed mRNA in the absence of chemical substance: 0.7
Yeast gene YJL073W
  The level of expressed mRNA in the presence of chemical substance/The level of expressed mRNA in the absence of chemical substance: 0.8
Yeast gene YJL089W
  The level of expressed mRNA in the presence of chemical substance/The level of expressed mRNA in the absence of chemical substance: 1.1
Yeast gene YJL116C
  The level of expressed mRNA in the presence of chemical substance/The level of expressed mRNA in the absence of chemical substance: 0.9
Yeast gene YJR004C
  The level of expressed mRNA in the presence of chemical substance/The level of expressed mRNA in the absence of chemical substance: 0.2
Yeast gene YJR086W
  The level of expressed mRNA in the presence of chemical substance/The level of expressed mRNA in the absence of chemical substance: 1.2
